Values of other authors, collected in patent US20110039930A1 (Emisphere Technologies, Inc., priority 2009, published 2011).

Settings: bleeding, ulceration, perforation of the stomach or intestines

**Q.** With `COc1ccc2cc(C(C)C(=O)O)ccc2c1` (stereo not shown) [Naproxen, 2-(6-methoxynaphthalen-2-yl)propanoic acid] as the compound, how does the gastrointestinal adverse events read?
**A.** increased risk of serious gastrointestinal adverse events
